Measured values from publication PMC12203311, “Design, synthesis, in silico and in vitro evaluation of pyrrole–indole hybrids as dual tubulin and aromatase inhibitors with potent anticancer activities” (RSC Advances, 2025).

What was measured:
Assay in all cases: NCI60 five-dose screen
SK-MEL-2 = type: cell-based; conditions: Homo sapiens, SK-MEL-2, melanoma
DU-145 = type: cell-based; conditions: Homo sapiens, DU-145, prostate cancer
NCI-H23 = type: cell-based; conditions: Homo sapiens, NCI-H23, NSC lung cancer
CAKI-1 = type: cell-based; conditions: Homo sapiens, CAKI-1, renal cancer
SK-OV-3 = type: cell-based; conditions: Homo sapiens, SK-OV-3, ovarian cancer
UACC-62 = type: cell-based; conditions: Homo sapiens, UACC-62, melanoma
A549/ATCC = type: cell-based; conditions: Homo sapiens, NSC lung cancer
U251 = type: cell-based; conditions: Homo sapiens, U-251, U251, CNS cancer
SK-MEL-28 = type: cell-based; conditions: Homo sapiens, SK-MEL-28, melanoma
HL-60 (TB) = type: cell-based; conditions: Homo sapiens, leukemia
PC-3 = type: cell-based; conditions: Homo sapiens, PC-3, prostate cancer
SF-295 = type: cell-based; conditions: Homo sapiens, SF-295, CNS cancer
SK-MEL-5 = type: cell-based, human; conditions: Homo sapiens
NCI-H460 = type: cell-based; conditions: Homo sapiens, NCI-H460, NSC lung cancer
BT-549 = type: cell-based; conditions: Homo sapiens, BT-549, breast cancer
MCF7 = type: cell-based; conditions: Homo sapiens, MCF7, breast cancer
SNB-19 = type: cell-based; conditions: Homo sapiens, SNB-19, CNS cancer
OVCAR-4 = type: cell-based; conditions: Homo sapiens, OVCAR-4, ovarian cancer
K-562 = type: cell-based; conditions: Homo sapiens, K562, K-562, leukemia
UACC-257 = type: cell-based; conditions: Homo sapiens, UACC-257, melanoma
MDA-MB-231/ATCC = type: cell-based; conditions: Homo sapiens, breast cancer
RPMI-8226 = type: cell-based; conditions: Homo sapiens, RPMI-8226, leukemia
EKVX = type: cell-based; conditions: Homo sapiens, NSC lung cancer
OVCAR-8 = type: cell-based; conditions: Homo sapiens, OVCAR-8, ovarian cancer
TK-10 = type: cell-based; conditions: Homo sapiens, TK-10, renal cancer
NCI-H522 = type: cell-based; conditions: Homo sapiens, NCI-H522, NSC lung cancer
COLO 205 = type: cell-based, human; conditions: Homo sapiens
IGROV1 = type: cell-based; conditions: Homo sapiens, IGROV-1; IGROV1, ovarian cancer
OVCAR-3 = type: cell-based; conditions: Homo sapiens, OVCAR-3, ovarian cancer
SNB-75 = type: cell-based; conditions: Homo sapiens, SNB-75, CNS cancer
LOX IMVI = type: cell-based; conditions: Homo sapiens, melanoma
SN12C = type: cell-based; conditions: Homo sapiens, renal cancer
HOP-62 = type: cell-based; conditions: Homo sapiens, HOP-62, NSC lung cancer
NCI/ADR-RES = type: cell-based, human; conditions: Homo sapiens, ovarian cancer
ACHN = type: cell-based; conditions: Homo sapiens, renal cancer
HCT-15 = type: cell-based; conditions: Homo sapiens, HCT-15, colon cancer
[1] = read-out: LC50 (the source's name)

**Q.** Which GI50 (SK-MEL-2) does the source give for CCOC(=O)c1c[nH]c(/C=N/NC(=O)c2[nH]c3ccc(Br)cc3c2-c2ccccc2)c1 [Derivative 3j, Ethyl (E)-5-((2-(5-bromo-3-phenyl-1H-indole-2-carbonyl)hydrazono)methyl)-1H-pyrrole-3-carboxylate] here?
**A.** 2800 nM

**Q.** And the CC50 (SK-MEL-2; [1])?
**A.** 32.8 µM

**Q.** And the GI50 (DU-145)?
**A.** 3.48 µM

**Q.** And the CC50 (DU-145; [1])?
**A.** 35.6 µM

**Q.** And the GI50 (NCI-H23)?
**A.** 3.06 µM

**Q.** What about the CC50 (NCI-H23; [1]) of the same compound?
**A.** 46.4 µM

**Q.** What about the GI50 (CAKI-1) of the same compound?
**A.** 1460 nM

**Q.** What about the CC50 (CAKI-1; [1]) of the same compound?
**A.** 40.5 µM

**Q.** And the GI50 (SK-OV-3)?
**A.** 4.53 µM

**Q.** And the CC50 (SK-OV-3; [1])?
**A.** 45.3 µM

**Q.** And the GI50 (UACC-62)?
**A.** 2920 nM

**Q.** And the CC50 (UACC-62; [1])?
**A.** 42.6 µM

**Q.** And the GI50 (A549/ATCC)?
**A.** 2700 nM

**Q.** And the CC50 (A549/ATCC; [1])?
**A.** 51.8 µM

**Q.** And the GI50 (U251)?
**A.** 2660 nM

**Q.** And the CC50 (U251; [1])?
**A.** 40.6 µM

**Q.** And the GI50 (SK-MEL-28)?
**A.** 4.56 µM

**Q.** What about the CC50 (SK-MEL-28; [1]) of the same compound?
**A.** 45.8 µM

**Q.** What about the GI50 (HL-60 (TB)) of the same compound?
**A.** 1500 nM

**Q.** And the CC50 (HL-60 (TB); [1])?
**A.** 9.88 µM

**Q.** What about the GI50 (PC-3) of the same compound?
**A.** 3.76 µM

**Q.** What about the CC50 (PC-3; [1]) of the same compound?
**A.** > 100 µM

**Q.** What about the GI50 (SF-295) of the same compound?
**A.** 2340 nM

**Q.** What about the CC50 (SF-295; [1]) of the same compound?
**A.** 24.4 µM

**Q.** What about the CC50 (SK-MEL-5; SK-MEL-5, SK-MEL-5, melanoma, read-out: LC50 (the source's name)) of the same compound?
**A.** 10.1 µM

**Q.** And the GI50 (SK-MEL-5; SK-MEL-5, melanoma)?
**A.** 1440 nM

**Q.** And the GI50 (NCI-H460)?
**A.** 2410 nM

**Q.** What about the CC50 (NCI-H460; [1]) of the same compound?
**A.** 23.1 µM

**Q.** What about the GI50 (BT-549) of the same compound?
**A.** 2230 nM

**Q.** What about the CC50 (BT-549; [1]) of the same compound?
**A.** 29.5 µM

**Q.** And the GI50 (MCF7)?
**A.** 2760 nM

**Q.** What about the CC50 (MCF7; [1]) of the same compound?
**A.** 50.2 µM

**Q.** What about the GI50 (SNB-19) of the same compound?
**A.** 4.51 µM

**Q.** And the CC50 (SNB-19; [1])?
**A.** 46.1 µM

**Q.** And the GI50 (OVCAR-4)?
**A.** 2280 nM

**Q.** And the CC50 (OVCAR-4; [1])?
**A.** 34.8 µM

**Q.** What about the GI50 (K-562) of the same compound?
**A.** 1900 nM

**Q.** And the CC50 (K-562; [1])?
**A.** 57.1 µM

**Q.** What about the GI50 (UACC-257) of the same compound?
**A.** 2530 nM

**Q.** And the CC50 (UACC-257; [1])?
**A.** 51.8 µM

**Q.** What about the GI50 (MDA-MB-231/ATCC) of the same compound?
**A.** 2850 nM

**Q.** What about the CC50 (MDA-MB-231/ATCC; [1]) of the same compound?
**A.** 36.8 µM

**Q.** What about the GI50 (RPMI-8226) of the same compound?
**A.** 2520 nM

**Q.** What about the CC50 (RPMI-8226; [1]) of the same compound?
**A.** > 100 µM

**Q.** What about the GI50 (EKVX) of the same compound?
**A.** 4.57 µM

**Q.** What about the CC50 (EKVX; [1]) of the same compound?
**A.** 43.1 µM

**Q.** And the GI50 (OVCAR-8)?
**A.** 2370 nM

**Q.** What about the CC50 (OVCAR-8; [1]) of the same compound?
**A.** 23.7 µM

**Q.** What about the GI50 (TK-10) of the same compound?
**A.** 7.35 µM

**Q.** And the CC50 (TK-10; [1])?
**A.** 46.2 µM

**Q.** And the GI50 (NCI-H522)?
**A.** 2270 nM

**Q.** What about the CC50 (NCI-H522; [1]) of the same compound?
**A.** 33 µM

**Q.** And the CC50 (COLO 205; COLO 205, COLO 205, colon cancer, read-out: LC50 (the source's name))?
**A.** 55.2 µM

**Q.** And the GI50 (COLO 205; COLO 205, colon cancer)?
**A.** 2490 nM

**Q.** What about the GI50 (IGROV1) of the same compound?
**A.** 3.91 µM

**Q.** And the GI50 (OVCAR-3)?
**A.** 2130 nM

**Q.** And the CC50 (OVCAR-3; [1])?
**A.** 23.1 µM

**Q.** What about the GI50 (SNB-75) of the same compound?
**A.** 1090 nM

**Q.** And the CC50 (SNB-75; [1])?
**A.** 35.8 µM

**Q.** And the GI50 (LOX IMVI)?
**A.** 2820 nM

**Q.** What about the CC50 (LOX IMVI; [1]) of the same compound?
**A.** 40.9 µM

**Q.** And the GI50 (SN12C)?
**A.** 2490 nM

**Q.** And the CC50 (SN12C; [1])?
**A.** 33.3 µM

**Q.** What about the GI50 (HOP-62) of the same compound?
**A.** 2780 nM

**Q.** And the CC50 (HOP-62; [1])?
**A.** 54.4 µM

**Q.** And the GI50 (NCI/ADR-RES)?
**A.** 1890 nM

**Q.** What about the CC50 (NCI/ADR-RES; [1]) of the same compound?
**A.** 10.4 µM

**Q.** What about the GI50 (ACHN) of the same compound?
**A.** 3.39 µM

**Q.** What about the CC50 (ACHN; [1]) of the same compound?
**A.** 36.4 µM

**Q.** And the GI50 (HCT-15)?
**A.** 2930 nM

**Q.** What about the CC50 (HCT-15; [1]) of the same compound?
**A.** 51.9 µM
